Results as given in patent US20260015325A1, “ALKOXY HETEROARYL- CARBOXAMIDE OR THIOAMIDE COMPOUNDS” (SYNGENTA CROP PROTECTION AG, priority 2022, published 2026).

Tests used:
Format in all cases: in vivo
[1] = test system: Myzus persicae (Green Peach Aphid); test: Myzus persicae (Green Peach Aphid): feeding/contact activity, sunflower leaf discs; details: foliar, 144 h, application rate of 200 ppm, mixed ages on sprayed sunflower leaf discs, 6 days after infestation, read-out: mortality
Procedure: Example B6: Myzus persicae (Green Peach Aphid): Feeding/Contact Activity
Sunflower leaf discs were placed onto agar in a 24-well microtiter plate and sprayed with aqueous test solutions prepared from 10′000 ppm DMSO stock solutions. After drying, the leaf discs were infested with an aphid population of mixed ages. The samples were assessed for mortality 6 days after infestation.

[2] = test system: Frankliniella occidentalis (Western Flower Thrips); test: Frankliniella occidentalis (Western Flower Thrips): feeding/contact activity, sunflower leaf discs; details: foliar, 168 h, application rate of 200 ppm, mixed ages on sprayed sunflower leaf discs, 7 days after infestation
Procedure: Example B5: Frankliniella occidentalis (Western Flower Thrips): Feeding/Contact Activity
Sunflower leaf discs were placed on agar in 24-well microtiter plates and sprayed with aqueous test solutions prepared from […] stock solutions. After drying the leaf discs were infested with a Frankliniella population of mixed ages. The samples were assessed for mortality 7 days after infestation.

[3] = test system: Euschistus heros (Neotropical Brown Stink Bug); test: Euschistus heros (Neotropical Brown Stink Bug), soybean leaves; details: 120 h, application rate of 200 ppm, N2 nymphs on sprayed soybean leaves, 5 days after infestation, read-out: effect in at least one of the two categories (mortality or growth inhibition)
Procedure: Example B4: Euschistus heros (Neotropical Brown Stink Bug)
Soybean leaves on agar in 24-well microtiter plates were sprayed with aqueous test solutions prepared from 10′000 ppm DMSO stock solutions. After drying the leaves were infested with N2 nymphs. The samples were assessed for mortality and growth inhibition in comparison to untreated samples 5 days after infestation.

[4] = test system: Myzus persicae (Green Peach Aphid); test: Myzus persicae (Green Peach Aphid): intrinsic activity, sucrose solution; details: 120 h, test rate of 12 ppm, intrinsic, mixed with sucrose solution under Parafilm, 5 days after infestation, read-out: mortality
Source text: Example B8: Myzus persicae (Green Peach Aphid). Intrinsic Activity
Test compounds prepared from 10′000 ppm DMSO stock solutions were applied by pipette into 24-well microtiter plates and mixed with sucrose solution. The plates were closed with a stretched Parafilm. A plastic stencil with 24 holes was placed onto the plate and infested pea seedlings were placed directly on the Parafilm. The infested plate was closed with a gel blotting paper and another plastic stencil and then turned upside down. The samples were assessed for mortality 5 days after infestation.

[5] = test system: Tetranychus urticae (Two-Spotted Spider Mite); test: whole plant or invertebrate; details: foliar, 192 h, application rate of 200 ppm, mixed population (mobile stages) on sprayed bean leaf discs, 8 days after infestation, read-out: mortality
Procedure: Example B11: Tetranychus urticae (Two-Spotted Spider Mite): Feeding/Contact Activity
Bean leaf discs on agar in 24-well microtiter plates were sprayed with aqueous test solutions prepared from 10′000 ppm DMSO stock solutions. After drying the leaf discs were infested with a mite population of mixed ages. The samples were assessed for mortality on mixed population (mobile stages) 8 days after infestation.

[6] = test system: Bemisia tabaci (Cotton White Fly); test: Bemisia tabaci (Cotton White Fly): feeding/contact activity, cotton leaf discs; details: foliar, 144 h, application rate of 200 ppm, adult white flies on sprayed cotton leaf discs, 6 days after incubation, read-out: mortality
Procedure: Example B1: Bemisia tabaci (Cotton White Fly): Feeding/Contact Activity
Cotton leaf discs were placed on agar in 24-well microtiter plates and sprayed with aqueous test solutions prepared from 10′000 ppm DMSO stock solutions. After drying the leaf discs were infested with adult white flies. The samples were checked for mortality 6 days after incubation.

[7] = test system: Plutella xylostella (Diamond Back Moth); test: Plutella xylostella (Diamond Back Moth), artificial diet; details: 192 h, application rate of 200 ppm, eggs on treated artificial diet, 8 days after infestation, read-out: effect in at least one of the two categories (mortality or growth inhibition)
Procedure: Example B9: Plutella xylostella (Diamond Back Moth)
24-well microtiter plates with artificial diet were treated with aqueous test solutions prepared from 10′000 ppm DMSO stock solutions by pipetting. After drying, Plutella eggs were pipetted through a plastic stencil onto a gel blotting paper and the plate was closed with it. The samples were assessed for mortality and growth inhibition in comparison to untreated samples 8 days after infestation.

[8] = test system: Myzus persicae (Green Peach Aphid); test: Myzus persicae (Green Peach Aphid): systemic activity, pea seedlings; details: 144 h, test rate of 24 ppm, systemic, roots of infested pea seedlings in test solution, 6 days, read-out: mortality
Procedure: Example B7: Myzus persicae (Green Peach Aphid). Systemic Activity
Roots of pea seedlings infested with an aphid population of mixed ages were placed directly into aqueous test solutions prepared from 10′000 DMSO stock solutions. The samples were assessed for mortality 6 days after placing seedlings into test solutions.

[9] = test system: Diabrotica balteata (Corn Root Worm); test: whole plant or invertebrate; details: 96 h, application rate of 200 ppm, L2 larvae on sprayed maize sprouts, 4 days after infestation, read-out: effect in at least one of the two categories (mortality or growth inhibition)
Procedure: Example B3: Diabrotica balteata (Corn Root Worm)
Maize sprouts placed onto an agar layer in 24-well microtiter plates were treated with aqueous test solutions prepared from 10′000 ppm DMSO stock solutions by spraying. After drying, the plates were infested with L2 larvae (6 to 10 per well). The samples were assessed for mortality and growth inhibition in comparison to untreated samples 4 days after infestation.

C[C@@H](COc1cnc(Cl)c(C(=O)NCC(F)(F)F)c1)NS(=O)(=O)C(F)(F)F [Compound P-3, 2-chloro-N-(2,2,2-trifluoroethyl)-5-[(2S)-2-(trifluoromethylsulfonylamino)propoxy]pyridine-3-carboxamide]
≥ 80%: mortality at 200 ppm [1] | mortality at 200 ppm [2] | percent effect (mortality or growth inhibition) at 200 ppm [3] | mortality at 12 ppm [4] | mortality at 200 ppm [5] | mortality at 200 ppm [6]

C[C@@H](COc1cnc(Cl)c(C(=O)NC23CC(C2)C3)c1)NS(=O)(=O)C(F)(F)F [Compound P-5, N-(1-bicyclo[1.1.1]pentanyl)-2-chloro-5-[(2S)-2-(trifluoromethylsulfonylamino)propoxy]pyridine-3-carboxamide]
≥ 80%: mortality at 200 ppm [1] | percent effect (mortality or growth inhibition) at 200 ppm [7] | mortality at 12 ppm [4] | mortality at 200 ppm [5] | mortality at 24 ppm [8]

C[C@@H](COc1cnc(Cl)c(C(=O)NC2(C#N)CC2)c1)N(C(=O)OC(C)(C)C)S(=O)(=O)C(F)(F)F [Compound P-6, tert-butyl N-[(1S)-2-[[6-chloro-5-[(1-cyanocyclopropyl)carbamoyl]-3-pyridyl]oxy]-1-methyl-ethyl]-N-(trifluoromethylsulfonyl)carbamate]
≥ 80%: mortality at 200 ppm [1] | mortality at 200 ppm [2] | percent effect (mortality or growth inhibition) at 200 ppm [3] | mortality at 12 ppm [4] | mortality at 200 ppm [5] | mortality at 200 ppm [6] | mortality at 24 ppm [8]

CC(C)C(=O)OCN([C@@H](C)COc1cnc(Cl)c(C(=O)NC2(C#N)CC2)c1)S(=O)(=O)C(F)(F)F [Compound P-9, [[(1S)-2-[[6-chloro-5-[(1-cyanocyclopropyl)carbamoyl]-3-pyridyl]oxy]-1-methyl-ethyl]-(trifluoromethylsulfonyl)amino]methyl 2-methylpropanoate]
≥ 80%: mortality at 200 ppm [1] | mortality at 200 ppm [2] | mortality at 12 ppm [4] | mortality at 200 ppm [6]

C[C@@H](COc1cnc(Cl)c(C(=O)Nc2ccc(F)cc2F)c1)NS(=O)(=O)C(F)(F)F [Compound P-23, 2-chloro-N-(2,4-difluorophenyl)-5-[(2S)-2-(trifluoromethylsulfonylamino)propoxy]pyridine-3-carboxamide]
≥ 80%: percent effect (mortality or growth inhibition) at 200 ppm [7] | mortality at 12 ppm [4] | mortality at 200 ppm [5] | mortality at 200 ppm [6]

C[C@@H](COc1cnc(Cl)c(C(=O)Nc2ccc(Cl)cc2F)c1)NS(=O)(=O)C(F)(F)F [Compound P-25, 2-chloro-N-(4-chloro-2-fluoro-phenyl)-5-[(2S)-2-(trifluoromethylsulfonylamino)propoxy]pyridine-3-carboxamide]
≥ 80%: percent effect (mortality or growth inhibition) at 200 ppm [7] | mortality at 200 ppm [5]

Cc1ncc(OC[C@H](C)NS(=O)(=O)C(F)(F)F)cc1C(=O)NC(C)c1ncnn1-c1ccc(C#N)cn1 (stereo partly drawn) [Compound P-27, N-[1-[2-(5-cyano-2-pyridyl)-1,2,4-triazol-3-yl]ethyl]-2-methyl-5-[(2S)-2-(trifluoromethylsulfonylamino)propoxy]pyridine-3-carboxamide]
≥ 80%: percent effect (mortality or growth inhibition) at 200 ppm [7]

Cc1nc(C(C)NC(=O)c2cc(OC[C@H](C)NS(=O)(=O)C(F)(F)F)cnc2C)no1 (stereo partly drawn) [Compound P-38, 2-methyl-N-[1-(5-methyl-1,2,4-oxadiazol-3-yl)ethyl]-5-[(2S)-2-(trifluoromethylsulfonylamino)propoxy]pyridine-3-carboxamide]
≥ 80%: percent effect (mortality or growth inhibition) at 200 ppm [7]

Cc1ncc(OC[C@H](C)NS(=O)(=O)C(F)(F)F)cc1C(=O)NOCC1CC1 [Compound P-41, N-(cyclopropylmethoxy)-2-methyl-5-[(2S)-2-(trifluoromethylsulfonylamino)propoxy]pyridine-3-carboxamide]
≥ 80%: percent effect (mortality or growth inhibition) at 200 ppm [7]

C[C@@H](COc1cnc(Cl)c(C(=O)NC2CC2)c1)N(C(=O)OC(C)(C)C)S(=O)(=O)C(F)(F)F [Compound P-42, tert-butyl N-[(1S)-2-[[6-chloro-5-(cyclopropylcarbamoyl)-3-pyridyl]oxy]-1-methyl-ethyl]-N-(trifluoromethylsulfonyl)carbamate]
≥ 80%: mortality at 200 ppm [1] | mortality at 200 ppm [2] | percent effect (mortality or growth inhibition) at 200 ppm [3] | mortality at 12 ppm [4] | mortality at 200 ppm [5]

CC(=O)N([C@@H](C)COc1cnc(Cl)c(C(=O)NC2CC2)c1)S(=O)(=O)C(F)(F)F [Compound P-43, 5-[(2S)-2-[acetyl(trifluoromethylsulfonyl)amino]propoxy]-2-chloro-N-cyclopropyl-pyridine-3-carboxamide]
≥ 80%: mortality at 200 ppm [1] | mortality at 200 ppm [2] | percent effect (mortality or growth inhibition) at 200 ppm [3] | mortality at 12 ppm [4] | mortality at 200 ppm [5] | mortality at 200 ppm [6] | mortality at 24 ppm [8]

C[C@@H](COc1cnc(Cl)c(C(=O)N(C)C2(C#N)CC2)c1)NS(=O)(=O)C(F)(F)F [Compound P-47, 2-chloro-N-(1-cyanocyclopropyl)-N-methyl-5-[(2S)-2-(trifluoromethylsulfonylamino)propoxy]pyridine-3-carboxamide]
≥ 80%: mortality at 200 ppm [1] | mortality at 200 ppm [2] | mortality at 12 ppm [4] | mortality at 200 ppm [6]

C[C@@H](COc1cnc(Cl)c(C(=O)NC2(C#N)CCC2)c1)NS(=O)(=O)C(F)(F)F [Compound P-48, 2-chloro-N-(1-cyanocyclobutyl)-5-[(2S)-2-(trifluoromethylsulfonylamino)propoxy]pyridine-3-carboxamide]
≥ 80%: mortality at 200 ppm [1] | mortality at 200 ppm [2] | mortality at 12 ppm [4] | mortality at 200 ppm [5] | mortality at 24 ppm [8]

CCN1OC[C@@H](NC(=O)c2cc(OC[C@H](C)NS(=O)(=O)C(F)(F)F)ncc2Br)C1=O [Compound P-84, 5-bromo-N-[(4R)-2-ethyl-3-oxo-isoxazolidin-4-yl]-2-[(2S)-2-(trifluoromethylsulfonylamino)propoxy]pyridine-4-carboxamide]
≥ 80%: percent effect (mortality or growth inhibition) at 200 ppm [9]
